According to patent US20220305037A1, “Treatment of Cancer” (Sumitomo Dainippon Pharma Oncology, Inc., priority 2019, published 2022):

Experiments:
[1] = system: patients with newly diagnosed, previously untreated AML
Procedure: Treatment Plan: Induction. Alvocidib was dose-escalated starting at dose level 1: 20 mg/m^2 30-minute IV bolus followed by 30 mg/m^2 IV infusion over 4 hours on Days 1-3 (FIG. 1). Daunorubicin 60 mg/m^2 IV bolus over 15 minutes was initiated on days 5-7, and cytarabine 100 mg/m^2/day IV continuous 24-hour infusion was administered on Days 5-11. A bone marrow aspirate and biopsy was performed on day 14 (+/−3 days) and patients with residual leukemia (>5% bone marrow blasts and >10% cellularity) were recommended to receive a second induction cycle with alvocidib on days 1-3 (same dose level as induction) followed by daunorubicin 45 mg/m^2/day IV over 15 minutes on days 5 and 6 and cytarabine 100 mg/m^2/day IV continuous infusion over days 5-9 (“5+2”).
Statistical Analysis. Alvocidib dose was escalated using a 3+3 design (FIG. 1). Successive cohorts of patients (3-6 per cohort) were treated with escalated doses until the maximal tolerated dose (MTD) was established. Intra-patient dose escalation was not permitted. Descriptive analysis was performed for the safety and efficacy endpoints. MTD for alvocidib was estimated by the highest alvocidib dose for which the incidence of DLT during Cycle 1 was less than 33% in combination with 7+3. Kaplan-Meier time-to-event analyses were performed on overall survival (OS), relapse-free survival and duration of remission. […]

[2] = system: patients with newly diagnosed, previously untreated AML; assay: Kaplan-Meier time-to-event analyses and clinical outcomes (OS, EFS, RFS, relapse) in the Phase 1 study; type: in vivo, human
From the text: (§1) Statistical Analysis. […] Intra-patient dose escalation was not permitted. […] Database lock was on Apr. 30, 2020.

[3] = system: patients with newly diagnosed, previously untreated AML; assay: Phase 1 dose-escalation study of alvocidib followed by cytarabine/daunorubicin (7+3): response assessment by ELN Guidelines; type: in vivo, human
Procedure: Methods: Study Population. This was a Phase 1, open-label, multicenter, dose-escalation study of alvocidib followed by cytarabine/daunorubicin (7+3) in patients with AML (NCT03298984). Patients aged 18-65 years with newly diagnosed, previously untreated AML and pathological confirmation of bone marrow (BM) blasts ≥20% were eligible. Key inclusion criteria included: Eastern Cooperative Oncology Group (ECOG) performance status (PS) ≤2, serum creatinine level ≤1.8 mg/dL, alanine aminotransferase (ALT) and aspartate aminotransferase (AST) ≤5 times upper limit of normal (ULN), total bilirubin ≤2.0 mg/dL, and left ventricular ejection fraction (EF) >45%. Patients were excluded if they had previous treatment for AML (with the exception of hydroxyurea), and were diagnosed with acute promyelocytic leukemia (APL-M3) or core-binding factor AML ((CBF-AML: t(8;21); inv(16); t(16;16)). All patients provided written informed consent. This study was conducted as per the Declaration of Helsinki after approval by ethics committee of each participating center.
Treatment Plan: Induction.
Consolidation. Patients who achieved a complete remission (CR) received 2 to 4 cycles of consolidation therapy with high dose cytarabine (HiDAC) 3 gm/m^2 IV every 12 hours on days 1, 3 and 5 upon full hematological recovery (absolute neutrophil count >1×10^−3/L and platelets >1×10^1/L). HiDAC was permitted to be dose reduced to 1.5 gm/m^2 IV every 12 hours on days 1, 3 and 5 in those >60 years. Allogeneic stem cell transplantation was permitted after induction per standard of care but was recommended after at least 1 cycle of HiDAC consolidation in those who achieved CR.
Response Assessments. Response assessment was performed by a bone marrow aspirate and biopsy at the time of full hematologic recovery or by day 50 and day 60 of 1 versus 2 induction cycles, respectively. Response to therapy was assessed by standardized ELN Guidelines. In those who achieved CR and received consolidation therapy, a bone marrow aspirate and biopsy was performed after cycle 2 of HiDAC, after completion of consolidation therapy, and at any suspicion of relapse.
as §1

[4] = system: patients with newly diagnosed, previously untreated AML; assay: Minimal residual disease (MRD) analysis of bone marrow by flow cytometry in the Phase 1 study; type: in vivo, human
Procedure: Minimal Residual Disease (MRD) Analysis. MRD was assessed in bone marrow samples at the time of response by a uniform central assay (Hematologics, Inc.) in an exploratory cohort, as has been previously described. Samples were first incubated with antibodies for 20 minutes at room temperature. Red blood cells were then lysed at 37° C. using buffered NH4Cl for 5 minutes, followed by centrifugation at 300 g. Cells were subsequently washed with PBS supplemented with 2% FCS and resuspended in 1% paraformaldehyde. Samples were analyzed on a FACSCalibur™ flow cytometer (Becton Dickinson Biosciences). 200,000 events were analyzed for each sample. Data analysis was performed with WinList™ software (Verity Software House). Two independent reviewers viewed each sample to arrive at a consensus on the data.

[5] = system: MCL-1 protein levels in blasts; details: cited from earlier work
MDS blasts = assay: MCL-1 dependency assay of MDS blasts after azacitidine pre-treatment; type: cell-based, human; details: patient sample MDS1060; MCL-1 dependency cut-off of 40%
Procedure: CD13, CD33, CD34, CD45, CD3 and CD20 were used as markers to identify MDS blasts, and to perform MCL-1 dependency analyses. MDS blasts were positive for CD13, CD33 and CD34, dim for CD45 and negative for CD3 and CD20.
On day 1 of the MCL-1 dependency assay, 5×10^4-1×10^5 HS-5 feeder cells were plated into a 6-well plate, and allowed to attached overnight. HS-5 feeder cells improve viability of frozen MDS bone marrow mononuclear cells (BMMCs) after thawing. On day 2 of the assay, MDS BMMCs were thawed, and divided into three treatment groups corresponding to treatment with DMSO, treatment with 1 μM azacitidine or treatment with 2.5 μM azacitidine. On day 4, after a 48-hour treatment period, MCL-1 dependency of MDS blasts, lymphocytes and monocytes were separately assessed.

CN1CC[C@H](c2c(O)cc(O)c3c(=O)cc(-c4ccccc4Cl)oc23)[C@H](O)C1 [alvocidib, 2-(2-chlorophenyl)-5,7-dihydroxy-8-[(3S,4R)-3-hydroxy-1-methylpiperidin-4-yl]chromen-4-one]
MTD (alvocidib dose) ([1]; IV bolus/IV infusion on Days 1-3, in combination with 7+3): (30/60 mg/m^2) | safety and feasibility of alvocidib administration prior to 7+3 induction ([1]; in vivo): safe, feasible | patients who achieved CR without MRD and remain in CR ([2]; 9 patients): 82% | median OS ([2]; 32 patients, median follow-up 9.2 months): not reached | duration of CR, range ([2]; CR patients relapsed to date): 1.4-13.6 months | CR patients relapsed to date ([2]; of the 22 CR patients, 7 patients): 32% | median RFS ([2]; time from CR/CRi up to disease relapse or death): not reached | patients who achieved CR without evidence of MRD and relapsed ([2]; two patients): 18% | differences in response to alvocidib in patients with or without MCL-1 dependence ([3]; MCL-1 dependence threshold priming >30%, exploratory analysis): No significant differences | patients who received re-induction for residual leukemia on day 14 ([3]; all enrolled, 3 patients, re-induction with alvocidib and 5+2): 9% | CR rate ([3]; genomic class AML with NPM1 mutation (8/10)): 80% | CR among patients who received re-induction therapy ([3]; re-induction with alvocidib and 5+2): None | MRD-negative among CR patients with ELN adverse-risk disease ([4]; 4/9, flow cytometry and/or institutional standard assessment): 44% | MRD-negative CR in ELN adverse-risk patients ([4]; exploratory cohort, 3 out of 4): 75%

Nc1ncn([C@@H]2O[C@H](CO)[C@@H](O)[C@H]2O)c(=O)n1 [azacitidine]
effect on MCL-1 protein levels in blasts [5]: reduce MCL-1 protein levels in blasts | change of MCL-1 dependency status of blasts (MDS blasts): rendered MCL-1-independent blasts MCL-1 dependent
